Read-outs that look alike come from different tables or passages of the source.
Key:
[1] = system: greenhouse red spider mite (Tetranychus urticae); experiment: Tetranychus urticae spray test, OP-resistant (TETRUR); format: in vivo; details: after 6 days, bean leaf discs
Outline: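 Bean leaf discs infested with all stages of an OP-resistant strain are sprayed with compound in acetone/DMF with alkylaryl polyglycol ether emulsifier, diluted in water; % mortality after 6 days (100% = all mites killed).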

[2] = system: southern root-knot nematode (Meloidogyne incognita); experiment: Meloidogyne incognita test (MELGIN); format: in vivo; details: application rate 20 ppm, after 14 days, lettuce
Experimental: 5. Meloidogyne incognita Test (MELGIN) • Solvent: 125.0 parts by weight of acetone To prepare a suitable active compound preparation, 1 part by weight of active compound is mixed with the stated amount of solvent and the concentrate is diluted with water to the desired concentration. Vessels are filled with sand, active compound solution, an egg/larvae suspension of the southern root-knot nematode (Meloidogyne incognita) and lettuce seeds. The lettuce seeds germinate and the plants develop. On the roots, galls are formed. After 14 days, the nematicidal effect in % is determined by the formation of galls. 100% means that no galls have been found; 0% means that the number of galls on the treated plants corresponds to the untreated control.

[3] = system: cattle ticks (Boophilus microplus); experiment: Boophilus microplus injection test (BOOPMI Inj); format: in vivo; details: 20 μg/animal, injection into the abdomen, assessed after 7 days
Experimental: 6. Boophilus microplus Injection Test (BOOPMI Inj)
• Solvent: dimethyl sulphoxide
To produce a suitable preparation of active compound, 10 mg of active compound are mixed with 0.5 ml of solvent, and the concentrate is diluted with solvent to the desired concentration.
1 μl of the active compound solution is injected into the abdomen of 5 fed adult female cattle ticks (Boophilus microplus). The animals are transferred into dishes and kept in a climate-controlled room.
The activity is assessed after 7 days by laying of fertile eggs. Eggs whose fertility is not visible from the outside are stored in a climate-controlled cabinet until the larvae hatch after about 42 days. An efficacy of 100% means that none of the ticks has laid any fertile eggs; 0% means that all eggs are fertile.

[4] = log P by HPLC on reversed-phase columns (C 18), EEC directive 79/831 Annex V.A8; format: physicochemical; details: for logP[a]: method [a]; for logP[b]: method [b]; for chromatographic logP: reversed-phase C18 HPLC column
Outline: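 Measured by reversed-phase C18 HPLC (LC-MS) with a linear 10→95% acetonitrile gradient. Acidic: pH 2.7, 0.1% formic acid. Neutral: pH 7.8, 0.001 M ammonium bicarbonate.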

[5] = system: larvae of the mustard beetle (Phaedon cochleariae); experiment: Phaedon cochleariae spray test (PHAECO); format: in vivo; details: application rate 500 g/ha, after 7 days, Chinese cabbage leaf discs
Experimental: 2. Phaedon cochleariae Spray Test (PHAECO)
• Solvents: 78.0 parts by weight of acetone • 1.5 part by weight of dimethylformamide • Emulsifier: 0.5 part by weight of alkylaryl polyglycol ether
To produce a suitable preparation of active compound, 1 part by weight of active compound is mixed with the stated amounts of solvents and emulsifier, and the concentrate is diluted with emulsifier-containing water to the desired concentration.
After 7 days, the efficacy in % is determined. 100% means that all of the beetle larvae have been killed; 0% means that none of the beetle larvae have been killed.

[6] = pH 2.7, acidic range, pH 2.7, 0.1% aqueous formic acid / acetonitrile, read-out: log P[a]
[7] = pH 2.7, method [a], read-out: logP[a]
[8] = pH 7.8, method [b], read-out: logP[b]
[9] = pH 7.8, neutral range, pH 7.8, 0.001 molar aqueous ammonium bicarbonate / acetonitrile, read-out: log P[b]

Structure (SMILES) | efficacy in % (spider mites killed) ([1]; application rate 500 g/ha) | nematicidal effect in % (formation of galls) [2] | logP[a] [4] | logP[b] [4] | efficacy in % (beetle larvae killed) [5] | further results
Cc1cc(C)c([S+]([O-])CC(F)(F)F)cc1-n1cnc2cnn(C)c2c1=O (stereo not shown) [Compound 134] | 100% | 100% | – | – | – | efficacy in % (laying of fertile eggs) [3]: 100%
Cc1cc(F)c(-n2cnc3cnn(C)c3c2=O)cc1[S+]([O-])CC(F)(F)F (stereo not shown) [Compound 40] | 90% | 100% | 1.82 | 1.81 | – | efficacy in % (laying of fertile eggs) [3]: 100%
N#Cc1ccc(-n2cnc3sccc3c2=O)cc1[S+]([O-])CC(F)(F)F (stereo not shown) [Compound 95] | – | – | 1.89 | 1.87 | 100% | –
Cc1cc(F)c(-n2cnc3cnn(C(C)C)c3c2=O)cc1SCC(F)(F)F [Compound 161] | 100% | 100% | – | – | 83% | –
Cc1cc(F)c(-n2c(C)nc3cnn(C)c3c2=O)cc1[S+]([O-])CC(F)(F)F (stereo not shown) [Compound 41] | 100% | 90% | 1.90 | 1.88 | – | efficacy in % (laying of fertile eggs) [3]: 100%
Cc1cc(F)c(-n2nnc3c(cnn3C)c2=O)cc1[S+]([O-])CC(F)(F)F (stereo not shown) [Compound 120, 3-{2-Fluoro-4-methyl-5-[(2,2,2-trifluoroethyl)sulphinyl]phenyl}-7-methyl-3,7-dihydro-4H-pyrazolo[3,4-d][1,2,3]triazin-4-one] | 90% | – | – | – | 83% | chromatographic logP [4, 6]: 2.14; chromatographic logP [4, 7]: 2.14; chromatographic logP [4, 8]: 2.1; chromatographic logP [4, 9]: 2.1
Cc1cc(F)c(-n2cnc3ncsc3c2=O)cc1[S+]([O-])CC(F)(F)F (stereo not shown) [Compound 79] | 100% | 90% | 1.60 | 1.57 | – | efficacy in % (laying of fertile eggs) [3]: 100%
Cc1cc(F)c(-n2cnc3c(C)nn(C)c3c2=O)cc1[S+]([O-])CC(F)(F)F (stereo not shown) [Compound 129] | 90% | 90% | – | – | – | efficacy in % (laying of fertile eggs) [3]: 100%
Cc1cc(F)c(-n2cnc3snc(C(C)(C)C)c3c2=O)cc1[S+]([O-])CC(F)(F)F (stereo not shown) [Compound 208] | 100% | 100% | – | – | 83% | –
Cc1cc(F)c(-n2nnc3cnn(C)c3c2=O)cc1[S+]([O-])CC(F)(F)F (stereo not shown) [Compound 136] | 100% | 90% | – | – | 83% | –
Cc1c2c(=O)n(-c3ccc(C#N)c([S+]([O-])CC(F)(F)F)c3)cnc2nn1C (racemic) [Compound 51] | – | – | 1.52 | 1.50 | 100% | –
Cc1ccc(-n2cnc3c(cnn3C)c2=O)cc1[S+]([O-])CC(F)(F)F (racemic) [Compound 27] | 90% | – | 1.57 | 1.57 | – | efficacy in % (laying of fertile eggs) [3]: 100%
N#Cc1cc(F)c(-n2cnc3sccc3c2=O)cc1SCC(F)(F)F [Compound 82] | – | – | 2.70 | 2.67 | 100% | –
N#Cc1ccc(-n2cnc3ccsc3c2=O)cc1[S+]([O-])CC(F)(F)F (stereo not shown) [Compound 105] | – | – | 1.79 | 1.75 | 100% | –
Cc1cc(F)c(-n2cnc3cnn(C(C)C)c3c2=O)cc1[S+]([O-])CC(F)(F)F (stereo not shown) [Compound 165] | 100% | 100% | – | – | 100% | –
O=c1c2sccc2ncn1-c1ccc(Cl)c([S+]([O-])CC(F)(F)F)c1 (stereo not shown) [Compound 106] | – | – | 2.07 | 2.03 | 83% | –
Cc1nc2c(=O)n(-c3cc([S+]([O-])CC(F)(F)F)c(C)cc3C)cnc2s1 (stereo not shown) [Compound 75] | 90% | 80% | 1.84 | 1.81 | – | –
Cc1nn(C)c2ncn(-c3ccc(C#N)c(SCC(F)(F)F)c3)c(=O)c12 [Compound 34] | – | – | 2.30 | 2.24 | 100% | –
N#Cc1ccc(-n2cnc3sccc3c2=O)cc1[S+]([O-])CC(F)(F)F (stereo not shown) [Compound 88] | – | – | 2.07 | 2.00 | 100% | –
Cc1cc(F)c(-n2cnc3ccsc3c2=O)cc1[S+]([O-])CC(F)(F)F (stereo not shown) [Compound 112] | – | 90% | 1.96 | 1.95 | 100% | efficacy in % (spider mites killed) ([1]; application rate 100 g/ha): 90%
Cc1cc(F)c(-n2cnc3sccc3c2=O)cc1[S+]([O-])CC(F)(F)F (stereo not shown) [Compound 96] | 100% | 90% | 2.10 | 2.09 | 100% | –
Cc1cc(F)c(-n2nnc3c(C)nsc3c2=O)cc1[S+]([O-])CC(F)(F)F (stereo not shown) [Compound 183] | 90% | – | – | – | 100% | –
Cc1cc(F)c(-n2cnc3scnc3c2=O)cc1SCC(F)(F)F [Compound 60] | – | – | 2.54 | 2.52 | 100% | –
CCc1nsc2ncn(-c3cc(SCC(F)(F)F)c(C)cc3F)c(=O)c12 [Compound 201] | 90% | – | – | – | 100% | –
Cc1cc(F)c(-n2cnc3nsc(C(C)(C)C)c3c2=O)cc1SCC(F)(F)F [Compound 191] | 100% | – | – | – | 100% | –
CC(C)(C)c1snc2ncn(-c3ccc(Cl)c([S+]([O-])CC(F)(F)F)c3)c(=O)c12 (stereo not shown) [Compound 118] | 90% | 90% | 3.14 | 3.08 | – | –
Cc1cc(F)c(-n2cnc3c(cnn3C)c2=O)cc1SCC(F)(F)F [Compound 1, 5-{2-Fluoro-4-methyl-5-[(2,2,2-trifluoroethyl)sulphanyl]phenyl}-1-methyl-1,5-dihydro-4H-pyrazolo[3,4-d]pyrimidin-4-one] | 90% | – | – | – | 100% | chromatographic logP [4, 6]: 2.66; chromatographic logP [4, 7]: 2.66; chromatographic logP [4, 8]: 2.65; chromatographic logP [4, 9]: 2.65
